Measured values as given in patent US9271978B2 (Zenith Epigenetics Corp., priority 2012, dated 2016).

Tests used:
hIL-6 mRNA = experiment: Inhibition of hIL-6 mRNA transcription in U937 cells; type: cell-based, human; design: key: Active: Compounds with an IC50 value less than 30 μM were deemed to be active.; Not Active: Compounds with an IC50 value less than 30 μM were deemed to be active; settings: LPS stimulation, active = IC50 <30 μM
Outline: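 U937 cells differentiated 3 days with 60 ng/mL PMA, pretreated 1 h with compound, then stimulated with 1 ug/mL E. coli LPS for 3 h at 37° C. hIL-6 mRNA quantified by one-step qRT-PCR, Ct normalized to internal control, expressed as fold induction relative to control.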

[1] = tested on: human AML MV-4-11 (CRL-9591) cells; experiment: Inhibition of cell proliferation in MV4-11 cells; type: cell-based; design: key: Active: Compounds with an IC50 value less than 30 μM were deemed to be active.; Not Active: Compounds with an IC50 value less than 30 μM were deemed to be active; settings: human AML MV-4-11 cells, 72 h; active = IC50 <30 μM
Outline: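 Exponentially growing MV-4-11 cells (5×10^4/well) were treated immediately with two-fold dilutions of compound from 30 μM to 0.2 μM, in triplicate, for 72 h at 37° C, 5% CO2. Viability was measured by MTS absorbance at 490 nm after 3–4 h. Proliferation relative to DMSO after blank correction gave IC50.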

hMCP-1 mRNA = experiment: Inhibition of hMCP-1 mRNA transcription in human peripheral blood mononuclear cells; type: cell-based; design: key: Active: Compounds with an IC50 value less than 30 μM were deemed to be active.; Not Active: Compounds with an IC50 value less than 30 μM were deemed to be active; settings: 3 h
Experimental: In this example, hMCP-1 mRNA in human peripheral blood mononuclear cells was quantitated to measure the transcriptional inhibition of hMCP-1 when treated with a compound of the present disclosure.
Human Peripheral Blood Mononuclear Cells were plated (1.0×10^5 cells per well) in a 96-well plate in 45 μL RPMI-1640 containing 10% FBS and penicillin/streptomycin. The cells were treated with the test compound (45 μL at 2× concentration), and then the cells were incubated at 37° C. for 3 h before the cells were harvested. At time of harvest, cells were transferred to V-bottom plates and centrifuged (800 rpm, 5 min). Spent media was removed and cell lysis solution (70 μL) was added the cells in each well and incubated for 5-10 min at room temperature, to allow for complete cell lysis and detachment. mRNA was then prepared using the “mRNA Catcher PLUS plate” (Invitrogen), according to the protocol supplied. After the last wash, as much wash buffer as possible was aspirated without allowing the wells to dry. Elution buffer (E3, 70 μL) was then added to each well. mRNA was then eluted by incubating the mRNA Catcher PLUS plate with Elution Buffer for 5 min at 68° C. and then immediately placing the plate on ice.
The eluted mRNA isolated was then used in a one-step quantitative real-time PCR reaction, using components of the Ultra Sense Kit together with Applied Biosystems primer-probe mixes. Real-time PCR data was analyzed, normalizing the Ct values for hMCP-1 to an internal control, prior to determining the fold induction of each unknown sample, relative to the control.

[2] = molecular target: T1, second bromodomain of Brd2 (BRD2(2)) (Homo sapiens, UniProt P25440); experiment: Inhibition of tetra-acetylated histone H4 binding to Brd2 bromodomain 2 (TR-FRET); design: key: Active: Compounds with an IC50 value less than 30 μM were deemed to be active.; Not Active: Compounds with an IC50 value less than 30 μM were deemed to be active; settings: tetra-acetylated histone H4 peptide, active = IC50 <30 μM
T1 construct: made in house; host or cells: E. coli BL21 (DE3)
Outline: (§1)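 N-terminally His-tagged bromodomains (200 nM), expressed in E. coli, were incubated with biotinylated tetra-acetylated histone H4 peptide (25-50 nM), Eu-cryptate streptavidin and XL665 anti-His antibody in HEPES pH 7.4 buffer with KF, 0.2% DMSO, 2 h at room temperature. Inhibition read as decreased 665/620 nm TR-FRET; IC50 from dose-response curves.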

[3] = molecular target: T2, Brd4 bromodomain 1 (BRD4(1)) (Homo sapiens, UniProt O60885); experiment: Inhibition of tetra-acetylated histone H4 binding to Brd4 bromodomain 1 (TR-FRET); design: key: Active: Compounds with an IC50 value less than 30 μM were deemed to be active.; Not Active: Compounds with an IC50 value less than 30 μM were deemed to be active; settings: tetra-acetylated histone H4 peptide, active = IC50 <30 μM
T2 construct: Illustrative results with the first bromodomain of Brd4; made in house; host or cells: E. coli BL21 (DE3)
Outline: as §1

MM1.s cells = experiment: In vivo efficacy, multiple myeloma xenograft model using MM1.s cells; design: species or system mouse; settings: MM1.s multiple myeloma xenograft in mice, oral 25 to 90 mg/kg b.i.d, tumor growth inhibition
Experimental: MM1.s cells (ATCC) were grown under standard cell culture conditions and SCID-Beige strain of female mice age 6-7 weeks were injected with 10×10^6 cells/animal in 100 μl PBS+100 μL Matrigel in the lower left abdominal flank. By approximately day 21 after MM1.s cells injection, mice were randomized based on tumor volume (L×W×H)/2) of average ^˜120 mm^3. Mice were dosed orally with compound at 25 to 90 mg/kg b.i.d in EA006 formulation at 10 mL/kg body weight dose volume. Tumor measurements were taken with electronic micro calipers and body weights measured on alternate days beginning from dosing period. The average tumor volumes, percent Tumor Growth Inhibition (TGI) and % change in body weights were compared relative to Vehicle control animals. The means, statistical analysis and the comparison between groups were calculated using Student's t-test in Excel.

hIL-17 mRNA = experiment: Inhibition of hIL-17 mRNA transcription in human peripheral blood mononuclear cells; type: cell-based; design: key: Active: Compounds with an IC50 value less than 30 μM were deemed to be active.; Not Active: Compounds with an IC50 value less than 30 μM were deemed to be active; settings: OKT3 antibody stimulation
Experimental: In this example, hIL-17 mRNA in human peripheral blood mononuclear cells was quantitated to measure the transcriptional inhibition of hIL-17 when treated with a compound of the invention.
Human peripheral blood mononuclear cells were plated (2.0×10^5 cells per well) in a 96-well plate in 45 μL OpTimizer T Cell expansion media containing 20 ng/ml IL-2 and penicillin/streptomycin. The cells were treated with the test compound (45 μL. at 2× concentration), and then the cells were incubated at 37° C. for 1 h before addition of 10× stock OKT3 antibody at 10 ug/ml in media. Cells were incubated at 37° C. for 3 h before the cells were harvested. At time of harvest, cells were centrifuged (800 rpm, 5 min). Spent media was removed and cell lysis solution (70 μL) was added the cells in each well and incubated for 5-10 min at room temperature, to allow for complete cell lysis and detachment. mRNA was then prepared using the “mRNA Catcher PLUS plate” (Invitrogen), according to the protocol supplied. After the last wash, as much wash buffer as possible was aspirated without allowing the wells to dry. Elution buffer (E3, 70 μL) was then added to each well. mRNA was then eluted by incubating the mRNA Catcher PLUS plate with Elution Buffer for 5 min at 68° C. and then immediately placing the plate on ice.
The eluted mRNA isolated was then used in a one-step quantitative real-time PCR reaction, using components of the Ultra Sense Kit together with Applied Biosystems primer-probe mixes. Real-time PCR data was analyzed, normalizing the Ct values for hIL-17 to an internal control, prior to determining the fold induction of each unknown sample, relative to the control.

c-myc = experiment: Inhibition of c-myc expression in MV4-11 cells (mRNA, real-time PCR); type: cell-based; design: key: Active: Compounds with an IC50 value less than 30 μM were deemed to be active.; Not Active: Compounds with an IC50 value less than 30 μM were deemed to be active; settings: Human AML MV4-11 cells, 3 h incubation
Outline: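 MV4-11 cells (2.5×10^4) treated with compound or 0.1% DMSO for 3 h at 37 °C. c-myc mRNA measured by RT real-time PCR duplexed with cyclophilin. IC50 from dose–response curve.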

T1 sequence (P25440 344-453 limits assumed): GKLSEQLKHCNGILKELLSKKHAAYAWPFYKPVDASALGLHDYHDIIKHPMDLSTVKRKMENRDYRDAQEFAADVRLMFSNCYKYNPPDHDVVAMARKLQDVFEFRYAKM

Cc1noc(C)c1-c1ccc(=O)n(Cc2ccccc2F)c1 [Example 27, 5-(3,5-Dimethylisoxazol-4-yl)-1-(2-fluorobenzyl)pyridin-2(1H)-one]
Active: IL-6 activity (IC50 <30 μM) (hIL-6 mRNA) | Cell Proliferation activity (IC50 <30 μM) [1] | MCP-1 activity (IC50 < 30 μM) (hMCP-1 mRNA) | FRET activity (IC50 <30 μM) BRD2(2) [2] | FRET activity (IC50 <30 μM) BRD4(1) [3]

Cc1noc(C)c1-c1cc(N)c(=O)n(Cc2ccc(Cl)cc2)c1 [Example 152, 3-Amino-1-(4-chlorobenzyl)-5-(3,5-dimethylisoxazol-4-yl)pyridin-2(1H)-one]
Active: In vivo activity (MM1.s cells) | FRET activity (IC50 <30 μM) BRD4(1) [3]

Cc1noc(C)c1-c1cc(N)c(=O)n(Cc2cccc3[nH]ccc23)c1 [Example 247, 1-((1H-Indol-4-yl)methyl)-3-amino-5-(3,5-dimethylisoxazol-4-yl)pyridin-2(1H)-one]
Active: IL-6 activity (IC50 <30 μM) (hIL-6 mRNA) | Cell Proliferation activity (IC50 <30 μM) [1] | IL-17 activity (IC50 < 30 μM) (hIL-17 mRNA) | c-myc activity (IC50 <30 μM) (c-myc) | FRET activity (IC50 <30 μM) BRD4(1) [3]

Cc1noc(C)c1-c1cc(N)c(=O)n(Cc2cccc3[nH]cc(C)c23)c1 [Example 271, 3-Amino-5-(3,5-dimethylisoxazol-4-yl)-1-((3-methyl-1H-indol-4-yl)methyl)pyridin-2(1H)-one]
Active: IL-6 activity (IC50 <30 μM) (hIL-6 mRNA) | Cell Proliferation activity (IC50 <30 μM) [1] | IL-17 activity (IC50 < 30 μM) (hIL-17 mRNA) | c-myc activity (IC50 <30 μM) (c-myc) | FRET activity (IC50 <30 μM) BRD4(1) [3]
